Experimental data published in patent US6752989B1, “Tooth surface treatment agent” (3M ESPE AG, priority 1999, dated 2004).

Tested on: fluorescence-marked casein
Assay: Proteolytic pepsin activity with fluorescence-marked casein after contact with ground bovine dentine
Format: biochemical
Settings: 2.5 ml of 10 μg/ml solution, pH 2.0 buffer, on 1 g ground bovine dentine for 20 min; excitation 480 nm, emission 510 nm
Procedure: 2.5 ml of a pepsin solution (10 μg/ml) in a 20 mM disodium hydrogen phosphate buffer (pH 2.0) were added to 1 g of ground bovine dentine and allowed to remain there for 20 min. under agitation. Subsequently the mixture was centrifuged for 1 min. in a Heraeus Biofuge Pico at 10,000 rpm. 900 μl of the residue were mixed with 12 μg of fluorescence-marked casein (Molecular Probes company, Göttingen) in 100 μl 20 mM of disodium hydrogen phosphate buffer (pH 2.0). The presence of proteolytic pepsin activity is manifested in the increase in fluorescence with an excitation wave length of 480 nm and with an emission wave length of 510 nm.

## pepsin
  proteolytic pepsin activity (increase in fluorescence): no pepsin activity was determinable any more
